# Data as given in US10111936B2, “Metal-glycoprotein complexes and photodynamic therapy of immune privileged sites with same” (Theralase Technologies, Inc., priority 2015, dated 2018).
# Tests used:
# [1] = Hydroxyl radical production, cell free (HPF indicator fluorescence); type: physicochemical; set-up: unit not given here
# Protocol: The photosensitizers were diluted in phosphate buffer (pH=7.0)+100 mM NaCl or incomplete DMEM. The irradiation was performed in 96-well plates (100 uL working volume). Generation of singlet oxygen was measured by fluorescence signal of SOG indicator, generation of hydroxyl radical by fluorescence signal of HPF indicator. The signal presented is a result of subtraction of the signal in the presence of scavengers (NaN3 for singlet oxygen and DMTU for hydroxyl radical) from the total fluorescence signal.
# Mice = assay: In vivo toxicity, maximum tolerated dose, i.p. escalating doses; set-up: species or system mouse; settings: no transferrin
# Protocol: Mice were injected (i.p.) with escalating doses of the photosensitizers with and without transferrin.
# AY27 cancer cell line = assay: In vitro PDT effect, Presto Blue cell kill; type: cell-based; settings: 90 J cm−2, 0.4 mg/mL human transferrin, 30 minutes
# Protocol: The photosensitizer was pre-mixed with 0.4 mg/mL human transferrin and incubated for 1 hour at 37° C. In control group (no additional transferrin), equivalent volume of no-transferrin medium was added. The cells were subsequently incubated with the pre-mixes for 30 minutes (FIG. 14A) or 90 minutes (FIG. 14B). After that, the medium was replaced with a fresh one (without photosensitizer and transferrin) and the cells were irradiated. On the next day (21 hours post-irradiation), viability of the cells was measured using Presto Blue viability assay, and percent of cell kill was calculated. The PDT effect shown is a result of subtraction of “photosensitizer alone” and “light alone” cell kill from the total PDT cell kill.
# The photosensitizer was pre-mixed with 0.4 mg/mL human transferrin and incubated for 1 hour at 37° C. In control group (no additional transferrin), equivalent volume of no-transferrin medium was added. The cells were subsequently incubated with the pre-mixes for 30 minutes. After that, the medium was replaced with a fresh one (without photosensitizer and transferrin) and the cells were irradiated. On the next day (21 hours post-irradiation), viability of the cells was measured using Presto Blue viability assay, and percent of cell kill was calculated. […]
# normal human fibroblasts = assay: Uptake by normal cells by ICP-MS; type: cell-based; settings: 200 uM, 0.8 mg/mL transferrin, 4 hours, much lesser extent than cancer cells
# Protocol: Cell culture (normal human fibroblasts) was exposed to 200 uM of the photosensitizer without additional transferrin and in the presence of 0.8 mg/mL transferrin for 4 hours. The incubation mix was washed away and the cells were collected, counted, and lysed. Lysed solution was dissolved in nitric acid and appropriate metals concentration was measured using inductively coupled plasma mass spectrometry. The metals concentration is directly proportional to the concentration of the photosensitizer.
# [2] = Photobleaching / absorbance stability; type: physicochemical; settings: 525 nm laser; 0.8 mg/mL transferrin
# Protocol: Photobleaching was measured: (a) at wavelength in visible range maximal for each photosensitizer. This allows to estimate dynamics of amount of unbleached photosensitizer during irradiation; and (b) at 530, 635 and 808 nm. This allows estimating dynamics of unbleached photosensitizer available to exert PDT effect at these wavelengths as practically useful for PDT treatments.
# (§1) Photosensitizers (10 uM) were dissolved in phosphate buffer+100 mM NaCl (pH=7.0) alone or in a buffer with 0.8 mg/mL of transferrin at a total volume of 1 mL. The mixture was then exposed to a 525 nm laser source (130 mW) and the absorbance at the maximal absorbance in visible range (432 nm for TLD1433, 425 nm for TLD143310 and 562 nm for TLDOsH2dppn) was measured at specific time points. The plot represents the absorbance ratio (absorbance of exposed samples/absorbance of unexposed sample) as a function of the number of incident photons per cm^−2. Decreasing absorbance ratio signifies bleaching of the photosensitizer.
# as §1, with “530” for “the maximal absorbance in visible range (432”, “nm” for “nm for TLD1433, 425 nm for TLD143310 and 562 nm for TLDOsH2dppn)”
# as §1, with “635” for “the maximal absorbance in visible range (432”, “nm” for “nm for TLD1433, 425 nm for TLD143310 and 562 nm for TLDOsH2dppn)”, “photosensitizer. […]” for “photosensitizer.”
structure (smiles),measurement,setting,value
[Os+2].c1ccc2cc3nc4c5cccnc5c5ncccc5c4nc3cc2c1.c1ccc2nc(-c3ccc4ccccc4n3)ccc2c1.c1ccc2nc(-c3ccc4ccccc4n3)ccc2c1 [TLDOsH2dppn],hydroxyl radical production,"[1]; 530 nm & 1092 J cm−2, incomplete DMEM, 0.8 mg/mL transferrin",70308
same,hydroxyl radical production,"[1]; 530 nm & 1092 J cm−2, incomplete DMEM, 1.6 mg/mL transferrin",132309
same,hydroxyl radical production,"[1]; 530 nm & 1092 J cm−2, incomplete DMEM, 3.2 mg/mL transferrin",164301
same,hydroxyl radical production,"[1]; 530 nm & 1092 J cm−2, incomplete DMEM, no transferrin",32934
same,hydroxyl radical production,"[1]; 530 nm & 1092 J cm−2, phosphate buffer, 0.8 mg/mL transferrin",41037
same,hydroxyl radical production,"[1]; 530 nm & 1092 J cm−2, phosphate buffer, 1.6 mg/mL transferrin",83034
same,hydroxyl radical production,"[1]; 530 nm & 1092 J cm−2, phosphate buffer, 3.2 mg/mL transferrin",120307
same,hydroxyl radical production,"[1]; 530 nm & 1092 J cm−2, phosphate buffer, no transferrin",25290
same,hydroxyl radical production,"[1]; 635 nm & 649 J cm−2, incomplete DMEM, 0.8 mg/mL transferrin",32531
same,hydroxyl radical production,"[1]; 635 nm & 649 J cm−2, incomplete DMEM, 1.6 mg/mL transferrin",42806
same,hydroxyl radical production,"[1]; 635 nm & 649 J cm−2, incomplete DMEM, 3.2 mg/mL transferrin",73624
same,hydroxyl radical production,"[1]; 635 nm & 649 J cm−2, incomplete DMEM, no transferrin",12093
same,hydroxyl radical production,"[1]; 635 nm & 649 J cm−2, phosphate buffer, 0.8 mg/mL transferrin",25280
same,hydroxyl radical production,"[1]; 635 nm & 649 J cm−2, phosphate buffer, 1.6 mg/mL transferrin",45372
same,hydroxyl radical production,"[1]; 635 nm & 649 J cm−2, phosphate buffer, 3.2 mg/mL transferrin",72316
same,hydroxyl radical production,"[1]; 635 nm & 649 J cm−2, phosphate buffer, no transferrin",8804
same,hydroxyl radical production,"[1]; 808 nm & 4000 J cm−2, incomplete DMEM, 0.8 mg/mL transferrin",42305
same,hydroxyl radical production,"[1]; 808 nm & 4000 J cm−2, incomplete DMEM, 1.6 mg/mL transferrin",77024
same,hydroxyl radical production,"[1]; 808 nm & 4000 J cm−2, incomplete DMEM, 3.2 mg/mL transferrin",102864
same,hydroxyl radical production,"[1]; 808 nm & 4000 J cm−2, incomplete DMEM, no transferrin",14237
same,hydroxyl radical production,"[1]; 808 nm & 4000 J cm−2, phosphate buffer, 0.8 mg/mL transferrin",13408
same,hydroxyl radical production,"[1]; 808 nm & 4000 J cm−2, phosphate buffer, 1.6 mg/mL transferrin",20392
same,hydroxyl radical production,"[1]; 808 nm & 4000 J cm−2, phosphate buffer, 3.2 mg/mL transferrin",56094
same,hydroxyl radical production,"[1]; 808 nm & 4000 J cm−2, phosphate buffer, no transferrin",8931
same,MTD Dose,Mice,50 mg/kg
same,"PDT effect, effect of transferrin",AY27 cancer cell line; 530 nm,increases PDT effect
same,"PDT effect, effect of transferrin",AY27 cancer cell line; 635 nm,increases PDT effect
same,"cellular accumulation in normal cells, effect of transferrin",normal human fibroblasts,higher in the presence of transferrin
same,"photobleaching, absorbance ratio at 530 nm",[2],bleaching of the photosensitizers was reduced
same,"photobleaching, absorbance ratio at 635 nm",[2],bleaching of the photosensitizers was reduced
same,"photobleaching, absorbance ratio at 808 nm",[2],bleaching of the photosensitizers was reduced
